One data set concerns the target human BACE1 (Homo sapiens, UniProt P56817). As to the kind of experiment: BACE-1 fluorescent kinetic assay (Example 88). The data set is classed as biochemical. How it is done:
Evaluation of BACE-1 Binding Affinity of Test Compounds
Fluorescent Kinetic Assay
Dilution and mixing steps: total reaction volume: 100 μL
100 μM substrate dilution in 1× PBS was prepared, and
Fluorescence Readings: Readings at Aex 320 nm and Aem 420 nm are taken every 40 sec for 30 min at room temperature and the linear slope for substrate cleavage rate (vi) determined.

[1] abbreviates: 10 nM enzyme, 25 μM substrate WABC-6, Na-Acetate pH 4.5, room temperature, read-out: BACE1 (IC50 μM).

Where two headings read alike, the source gives them in different places.

Chain of human BACE1 (P56817 46-501): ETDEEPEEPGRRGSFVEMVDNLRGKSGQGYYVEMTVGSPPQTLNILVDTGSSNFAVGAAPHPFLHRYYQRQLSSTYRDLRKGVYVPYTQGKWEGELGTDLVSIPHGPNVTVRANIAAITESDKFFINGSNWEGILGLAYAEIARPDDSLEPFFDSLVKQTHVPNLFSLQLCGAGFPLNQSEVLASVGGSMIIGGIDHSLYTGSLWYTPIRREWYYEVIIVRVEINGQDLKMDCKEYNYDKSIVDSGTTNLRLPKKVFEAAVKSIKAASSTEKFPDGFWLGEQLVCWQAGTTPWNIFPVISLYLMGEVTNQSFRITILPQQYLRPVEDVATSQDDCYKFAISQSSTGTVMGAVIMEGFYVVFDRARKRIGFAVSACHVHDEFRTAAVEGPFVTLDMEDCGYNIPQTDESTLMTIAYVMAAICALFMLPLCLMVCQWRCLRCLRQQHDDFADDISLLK

Regarding `COCC(=O)Nc1cccc(C2(C3CCN(C(=O)c4ccc(C#N)cc4)CC3)N=C(N)N(C)C2=O)c1` (centres unmarked) [Example 52], the melting point was in the range of 160 to 164 °C. For the same compound, the IC50 at human BACE1 (setting [1]) lay within 0.01 to 1 µM.

In turn, `CN1C(=O)C(c2cccc(-c3ccccc3)c2)(C2CCN(C(=O)c3cccs3)CC2)N=C1N` (centres unmarked) [Example 3, 2-Amino-5-(1,1′-biphenyl-3-yl)-3-methyl-5-[1-(thien-2-ylcarbonyl) -piperidin4-yl]-3,5-dihydro-4H-imidazol-4-one] showed a melting point of 135 to 137 °C. At human BACE1 (setting [1]), the IC50 is 0.01 to 1 µM.

`COCC(=O)Nc1cccc(C2(C3CCN(C(=O)C4CCC(=O)O4)CC3)N=C(N)N(C)C2=O)c1` (centres unmarked) [Example 44] had a melting point of 118 to 120 °C. Further, the IC50 on human BACE1 (setting [1]) is 0.01 to 1 µM.

Compound `CN1C(=O)C(c2cccc(-c3ccccc3)c2)(C2CCN(C(=O)COCc3ccccc3)CC2)N=C1N` (centres unmarked) [Example 6, 2-amino-5-{1-[(benzyloxy)acetyl]piperidin4-yl}-5-(1,1′-biphenyl-3-yl)-3-methyl-3,5-dihydro-4H-imidazol-4-one] returned a melting point of 121 to 124 °C. Moreover, at human BACE1 (setting [1]), the IC50 was 1.01 to 3 µM.

In the case of `COCC(=O)Nc1cccc(C2(C3CCN(C(=O)c4ccc5ccccc5c4)CC3)N=C(N)N(C)C2=O)c1` (centres unmarked) [Example 54], the melting point is 168 to 170 °C. Further, at human BACE1 (setting [1]), the IC50 lay within 0.01 to 1 µM.

As to `CN1C(=O)C(c2ccccc2)(C2CCNCC2)N=C1N` (centres unmarked) [Example 27, 2-Amino-3-methyl-5-phenyl-5-piperidin-4-yl-3,5-dihydro-4H -imidazol-4-one], the melting point was 269 to 271 °C. In addition, at human BACE1, the IC50 is over 3 µM.

As to `CN1C(=O)C(c2cccc(-c3ccccc3)c2)(C2CCN(C(=O)c3ccc(C#N)cc3)CC2)N=C1N` (centres unmarked) [Example 16, 4-({4-[2-amino-4-(1,1′-biphenyl-3-yl)-1-methyl-5-oxo-4,5-dihydro-1H -imidazol-4-yl]piperidin-1-yl}carbonyl)benzonitrile], the melting point is 152 to 154 °C. The IC50 on human BACE1 (setting [1]) is 0.01 to 1 µM.

As for `COCC(=O)Nc1cccc(C2(C3CCNCC3)N=C(N)N(C)C2=O)c1` (centres unmarked) [Example 32, N-[3-(2-Amino-1-methyl-5-oxo4-piperldin-4-yl-4,5-dihydro-1H -imidazol-4-yl)phenYl]-2-methoxyacetamide], the melting point lay within 170 to 174 °C. Also, the IC50 on human BACE1 (setting [1]) was over 3 µM.

As for `CN1C(=O)C(c2cccc(-c3cccc(Cl)c3)c2)(C2CCN(C(=O)c3ccccc3)CC2)N=C1N` (centres unmarked) [Example 85, 2-amino-5-(1-benzoylpiperidin-4-yl)-5-(3′-chlorobiphenyl-3-yl)-3-methyl-3,5-dihydro-4H-imidazol-4-one], the melting point fell in the range of 165 to 166 °C. For the same compound, on human BACE1 (setting [1]), the IC50 was 0.01 to 1 µM.

The compound `CCCOc1ccc(C(=O)N2CCC(C3(c4cccc(-c5ccccc5)c4)N=C(N)N(C)C3=O)CC2)cc1` (centres unmarked) [Example 22, 2-amino-5-(1,1′-biphenyl-3-yl)-3-methyl-5-[1-(4-propoxybenzoyl)piperidin4-yl]-3,5-dihydro4H-imidazol-4-one] gave a melting point of 131 to 133 °C. Besides, the IC50 at human BACE1 (setting [1]) was in the range of 0.01 to 1 µM.

As for `CN1C(=O)C(c2cccc(-c3cc(F)ccc3F)c2)(C2CCN(C(=O)c3ccccc3)CC2)N=C1N` (centres unmarked) [Example 86, 2-amino-5-(1-benzoylpiperidin-4-y)-5-(2′,5′-difluorobiphenyl-3-yl)-3-methyl-3,5-dihydro-4H-imidazol-4-one], the melting point was > 150 °C (dec.). In addition, at human BACE1 (setting [1]), the IC50 was 0.01 to 1 µM.

In the case of `COCC(=O)Nc1cccc(C2(C3CCN(C(=O)c4ccc5c(c4)OCO5)CC3)N=C(N)N(C)C2=O)c1` (centres unmarked) [Example 51], the melting point was > 160 °C (dec.). Moreover, the IC50 on human BACE1 (setting [1]) was 0.01 to 1 µM.

`COCC(=O)Nc1cccc(C2(C3CCN(C(=O)c4cc5ccccc5o4)CC3)N=C(N)N(C)C2=O)c1` (centres unmarked) [Example 46]: the melting point lay in the range of 139 to 142 °C. Moreover, the IC50 on human BACE1 (setting [1]) fell in the range of 0.01 to 1 µM.

The compound `CN1C(=O)C(c2cccc(-c3ccccc3)c2)(C2CCN(C(=O)c3ccccc3)CC2)N=C1N` (centres unmarked) [Example 4, 2-amino-5-(1-benzoylpiperidin-4-yl)-5-(1,1′-biphenyl-3-yl)-3-methyl-3,5-dihydro-4H -imidazol-4-one] gave a melting point of 136 to 137 °C. In addition, the IC50 on human BACE1 (setting [1]) fell in the range of 0.01 to 1 µM.

`COc1ccc(C(=O)N2CCC(C3(c4cccc(-c5ccccc5)c4)N=C(N)N(C)C3=O)CC2)cc1OC` (centres unmarked) [Example 13, 2-amino-5-(1,1′-biphenyl-3-yl)-5-[1-(3,4-dimethoxybenzoyl)piperidin-4-yl]-3-methyl-3,5-dihydro4H-imidazol-4-one]: the melting point lay in the range of 139 to 141 °C. For the same compound, the IC50 on human BACE1 (setting [1]) lay within 0.01 to 1 µM.

On to `CN1C(=O)C(c2cccc(-c3ccccc3)c2)(C2CCN(C(=O)c3ccco3)CC2)N=C1N` (centres unmarked) [Example 7, 2-amino-5-(1,1′-biphenyl-3-yl)-5-[1-(2-furoyl)piperidin-4-yl]-3-methyl-3,5-dihydro-4H -imidazol-4-one], for which the melting point lay in the range of 148 to 153 °C. The IC50 at human BACE1 (setting [1]) was in the range of 0.01 to 1 µM.

`COCC(=O)Nc1cccc(C2(C3CCN(C(=O)c4cccs4)CC3)N=C(N)N(C)C2=O)c1` (centres unmarked) [Example 55]: the melting point was 148 to 152 °C. The IC50 at human BACE1 (setting [1]) fell in the range of 0.01 to 1 µM.

Regarding `CN1C(=O)C(c2cccc(-c3cc(F)cc(F)c3)c2)(C2CCN(C(=O)c3ccccc3)CC2)N=C1N` (centres unmarked) [Example 87, 2-amino-5-(1-benzoylpiperidin-4-yl)-5-(3′,5′-difluorobiphenyl-3-yl)-3-methyl-3,5-dihydro-4H-imidazol-4-one], the melting point was > 150 °C (dec.). Besides, the IC50 at human BACE1 (setting [1]) fell in the range of 0.01 to 1 µM.

In turn, `COCC(=O)Nc1cccc(C2(C3CCN(C(=O)c4ccc(O)cc4)CC3)N=C(N)N(C)C2=O)c1` (centres unmarked) [Example 34, N-(3-{2-Amino-4-[1-(4-hydroxybenzoyl)piperidin4-yl]-1-methyl-5-oxo-4,5-dihydro-1H-imidazol-4-yl}phenyl)-2-methoxyacetamide] had a melting point of 184 to 187 °C. The IC50 at human BACE1 (setting [1]) is 0.01 to 1 µM.

`COc1cncc(-c2cccc(C3(C4CCN(C(=O)c5ccccc5)CC4)N=C(N)N(C)C3=O)c2)c1` (centres unmarked) [Example 82, 2-amino-5-(1-benzoylpiperidin-4-yl)-5-[3-(5-methoxypyridin-3-yl)phenyl]-3-methyl-3,5-dihydro-4H-imidazol-4-one] had a melting point of 150 to 153 °C. Moreover, at human BACE1 (setting [1]), the 50% inhibitory concentration (IC50) was in the range of 0.01 to 1 µM.

As for `COc1cccc(C(=O)N2CCC(C3(c4cccc(-c5ccccc5)c4)N=C(N)N(C)C3=O)CC2)c1` (centres unmarked) [Example 5, 2-amino-5-(1,1′-biphenyl-3-yl)-5-[1-(3-methoxybenzoyl)piperidin-4-yl]-3-methyl-3,5-dihydro-4H-imidazol-4-one], the melting point was 131 to 134 °C. In addition, the IC50 at human BACE1 (setting [1]) lay in the range of 0.01 to 1 µM.

For the compound `COCC(=O)Nc1cccc(C2(C3CCN(C(=O)c4ccc(C(=O)[O-])cc4)CC3)N=C(N)N(C)C2=O)c1.[Na+]` (centres unmarked) [Example 36, Sodium 4-{[4-(2-Amino4-{3-[(methoxyacetyl)amino]phenyl}-1-methyl-5-oxo-4,5-dihydro-1H-imidazol-4-yl)piperidin-1-yl]carbonyl}benzoate], the melting point is over 250 °C. The IC50 at human BACE1 (setting [1]) is 0.01 to 1 µM.

As to `COCC(=O)Nc1cccc(C2(C3CCN(C(=O)CC4CCCCC4)CC3)N=C(N)N(C)C2=O)c1` (centres unmarked) [Example 38], the melting point fell in the range of 131 to 133 °C. At human BACE1 (setting [1]), the IC50 is 0.01 to 1 µM.

The compound `CN1C(=O)C(c2cccc(-c3ccccc3)c2)(C2CCN(S(=O)(=O)c3ccccc3)CC2)N=C1N` (centres unmarked) [Example 8, 2-amino-5-(1,1′-biphenyl-3-yl)-3-methyl-5-[1-(phenylsulfonyl)piperidin-4-yl]-3,5-dihydro-4H-imidazol-4-one] showed a melting point of 138 to 139 °C. Besides, the IC50 at human BACE1 (setting [1]) was over 3 µM.

With `CN1C(=O)C(c2cccc(-c3cncnc3)c2)(C2CCN(C(=O)c3ccccc3)CC2)N=C1N` (centres unmarked) [Example 81, 2-amino-5-(1-benzoylpiperidin-4-yl)-3-methy-5-(3-pyrimidin-5-ylphenyl)-3,5-dihydro-4H-imidazol-4-one], the melting point is 156 to 158 °C. Also, the IC50 on human BACE1 (setting [1]) was in the range of 0.01 to 1 µM.

`COCC(=O)Nc1cccc(C2(C3CCN(C(=O)c4ccc(C(=O)OC)cc4)CC3)N=C(N)N(C)C2=O)c1` (centres unmarked) [Example 35, Methyl 4-{[4-(2-amino-4-{3-[(methoxyacetyl)amino]phenyl}-1-methyl-5-oxo-4,5-dihydro-1H-imidazol-4-yl)piperidin-1-yl]carbonyl}benzoate] registered a melting point of 161 to 163 °C. Moreover, the concentration for half-maximal inhibition (IC50) at human BACE1 (setting [1]) is 0.01 to 1 µM.

Take `COCC(=O)Nc1cccc(C2(C3CCN(C(=O)C(C)C)CC3)N=C(N)N(C)C2=O)c1` (centres unmarked) [Example 42]: the melting point lay within 145 to 148 °C. On human BACE1 (setting [1]), the IC50 was in the range of 0.01 to 1 µM.

With `CN1C(=O)C(c2cccc(-c3cccc(F)c3)c2)(C2CCN(C(=O)c3ccccc3)CC2)N=C1N` (centres unmarked) [Example 84, 2-amino-5-(1-benzoylpiperidin-4-yl)-5-(3′-fluorobiphenyl-3-yl)-3-methyl-3,5dihydro-4H-imidazol-4-one], the melting point is 165 to 168 °C. On human BACE1 (setting [1]), the IC50 lay within 0.01 to 1 µM.

Compound `COCC(=O)Nc1cccc(C2(C3CCN(Cc4ccccc4)CC3)N=C(N)N(C)C2=O)c1` (centres unmarked) [Example 59, N{3-[2-Amino-4-(1-benzylpiperidin-4-yl)-1-methyl-5-oxo-4,5-dihydro-1H-imidazol-4-yl]phenyl}-2-methoxyacetamide] showed a melting point of 120 to 123 °C. Further, the IC50 at human BACE1 (setting [1]) was over 3 µM.

In turn, `CCC(CC)C(=O)N1CCC(C2(c3cccc(NC(=O)COC)c3)N=C(N)N(C)C2=O)CC1` (centres unmarked) [Example 43] had a melting point of 102 to 105 °C. In addition, the IC50 on human BACE1 (setting [1]) was 1.01 to 3 µM.

On to `CCCc1ccc(C(=O)N2CCC(C3(c4cccc(-c5ccccc5)c4)N=C(N)N(C)C3=O)CC2)cc1` (centres unmarked) [Example 21, 2-amino-5-(1,1′-biphenyl-3-yl)-3-methyl-5-[1-(4-propylbenzoyl)piperidin4-yl]-3,5-dihydro4H-imidazol-4-one], for which the melting point was 133 to 135 °C. In addition, the half-inhibitory concentration (IC50) on human BACE1 (setting [1]) lay in the range of 0.01 to 1 µM.
